The supplement of paper PMC10307832

Legend:
Assay in all cases: relative viability (nuclei count vs DMSO), 5 days (fraction); higher = more cells survive
Motesanib + AZD7762 = compound: CC1(C)CNc2cc(NC(=O)c3cccnc3NCc3ccncc3)ccc21 [Motesanib] + NC(=O)Nc1cc(-c2cccc(F)c2)sc1C(=O)N[C@H]1CCCNC1 [AZD7762] (partner 0.2 µM)
Method in brief: (§1)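 One day after seeding in 1536-well plates, lung cancer cell lines were dosed by pin tool. Dosing was either single-drug or a fixed anchor-drug dose plus five library-drug doses (not always all listed) in √10 steps. After 5 days, nuclei were stained in one fix-and-stain step and counted on 4× images, and relative viability is the nuclei count of treated wells over that of vehicle wells, given as the median of duplicate plates.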

[1] = compound: C[C@@]1(C(=O)Nc2ccc(F)nc2)CCCN1c1nc(Nc2cc(C3CC3)n[nH]2)c2cccn2n1 + N=C(N)NC(=N)NCCc1ccccc1 [Phenformin] (partner 250 µM)
Method in brief: as §1

Motesanib + Tozasertib = compound: CC1(C)CNc2cc(NC(=O)c3cccnc3NCc3ccncc3)ccc21 [Motesanib] + Cc1cc(Nc2cc(N3CCN(C)CC3)nc(Sc3ccc(NC(=O)C4CC4)cc3)n2)n[nH]1 [Tozasertib] (partner 0.1 µM)
Method in brief: as §1

Motesanib + Pemetrexed = compound: CC1(C)CNc2cc(NC(=O)c3cccnc3NCc3ccncc3)ccc21 [Motesanib] + Nc1nc2[nH]cc(CCc3ccc(C(=O)N[C@@H](CCC(=O)O)C(=O)O)cc3)c2c(=O)[nH]1 [Pemetrexed] (partner 0.2 µM)
Method in brief: as §1

Cell Line | relative viability (Motesanib + AZD7762; first compound 0.01 µM) | relative viability (Motesanib + AZD7762; first compound 0.03162 µM) | relative viability (Motesanib + AZD7762; first compound 0.1 µM) | relative viability (Motesanib + AZD7762; first compound 0.3162 µM) | relative viability (Motesanib + AZD7762; first compound 1 µM) | relative viability ([1]; first compound 0.04 µM) | relative viability ([1]; first compound 0.1265 µM) | relative viability ([1]; first compound 0.4 µM) | relative viability ([1]; first compound 1.265 µM) | relative viability (Motesanib + Tozasertib; first compound 0.01 µM) | relative viability (Motesanib + Tozasertib; first compound 0.03162 µM) | relative viability (Motesanib + Tozasertib; first compound 0.1 µM) | relative viability (Motesanib + Tozasertib; first compound 0.3162 µM) | relative viability (Motesanib + Tozasertib; first compound 1 µM) | relative viability (Motesanib + Pemetrexed; first compound 0.01 µM) | relative viability (Motesanib + Pemetrexed; first compound 0.03162 µM) | relative viability (Motesanib + Pemetrexed; first compound 0.1 µM) | relative viability (Motesanib + Pemetrexed; first compound 0.3162 µM) | relative viability (Motesanib + Pemetrexed; first compound 1 µM)
NCI-H1755 | 0.407 | 0.45 | 0.467 | 0.425 | 0.383 | 0.638 | 0.55 | 0.53 | 0.547 | 0.498 | 0.588 | 0.568 | 0.652 | 0.537 | 0.403 | 0.356 | 0.38 | 0.401 | 0.32
NCI-H1793 | 0.41 | 0.243 | 0.605 | 0.514 | 0.413 | 0.322 | 0.286 |  | 0.306 | 0.37 | 0.268 | 0.422 | 0.321 | 0.302 | 0.862 | 0.894 | 0.843 | 0.856 | 0.853
NCI-H1915 | 0.676 | 0.66 | 0.747 | 0.711 | 0.755 | 0.372 | 0.381 | 0.378 | 0.347 | 0.401 | 0.408 | 0.478 | 0.456 | 0.434 | 0.54 | 0.484 | 0.451 | 0.463 | 0.442
NCI-H1944 | 0.425 | 0.476 | 0.532 | 0.541 | 0.472 | 0.169 | 0.153 | 0.136 | 0.133 | 0.258 | 0.229 | 0.233 | 0.236 | 0.284 | 0.58 | 0.628 | 0.565 | 0.554 | 0.442
NCI-H1975 | 0.656 | 0.686 | 0.752 | 0.821 | 0.709 | 0.407 | 0.36 | 0.326 | 0.314 | 0.771 | 0.65 | 0.773 | 0.711 | 0.648 | 0.283 | 0.281 | 0.274 | 0.271 | 0.239
NCI-H1993 | 0.788 | 0.725 | 0.595 | 0.676 | 0.863 | 0.495 | 0.657 | 0.541 | 0.55 | 0.603 | 0.614 | 0.552 | 0.501 | 0.605 | 0.452 | 0.623 | 0.533 | 0.641 | 0.57
NCI-H2085 | 1.02 | 0.933 | 1.14 | 0.953 | 0.987 | 0.815 | 0.631 | 0.607 | 0.416 | 0.852 | 0.749 | 0.886 | 0.818 | 0.797 | 0.895 | 0.969 | 0.852 | 0.851 | 0.892
NCI-H2087 |  |  | 1.41 | 1.13 | 1.55 | 0.437 | 0.342 | 0.313 | 0.237 | 0.208 | 0.204 | 0.261 | 0.208 | 0.258 |  |  | 0.657 | 0.73 | 0.605
NCI-H2126 | 1.04 | 1.05 | 0.999 | 1.03 | 1.09 | 0.459 | 0.293 | 0.314 | 0.293 | 0.883 | 0.922 | 0.915 | 0.855 | 0.867 | 0.683 | 0.715 | 0.615 | 0.695 | 0.655
NCI-H2170 | 0.871 | 0.865 | 0.82 | 0.75 | 0.755 | 0.432 | 0.396 | 0.419 | 0.357 | 0.64 | 0.679 | 0.709 | 0.832 | 0.659 | 0.258 | 0.255 | 0.257 | 0.269 | 0.253
NCI-H2342 | 0.46 | 0.515 | 0.571 | 0.476 | 0.459 | 0.574 | 0.43 | 0.46 | 0.44 | 0.493 | 0.496 | 0.438 | 0.562 | 0.583 | 0.8 | 0.748 | 0.795 | 0.794 | 0.912
NCI-H2347 | 0.738 | 0.825 | 0.749 | 0.674 | 0.712 | 0.368 | 0.495 | 0.312 | 0.41 | 0.466 | 0.445 | 0.548 | 0.524 | 0.443 | 0.396 | 0.406 | 0.387 | 0.447 | 0.364
NCI-H2405 | 0.629 | 0.632 | 0.691 | 0.812 | 0.765 | 0.351 | 0.273 | 0.226 | 0.276 |  | 0.602 | 0.814 | 0.769 | 0.784 | 1.05 | 1.11 | 1.02 | 1.11 | 1.02
NCI-H3122 | 0.972 | 1.02 | 0.945 | 1.06 | 1.15 | 0.411 | 0.373 | 0.387 | 0.575 | 0.301 | 0.369 | 0.409 | 0.475 | 0.452 | 0.186 | 0.191 | 0.184 | 0.202 | 0.219
PC-3 [JPC-3] | 0.779 | 0.751 | 0.727 | 0.731 | 0.683 | 0.504 | 0.467 | 0.456 | 0.476 | 0.855 | 0.931 | 0.884 | 0.864 | 0.85 | 1.02 | 1.04 | 1.04 | 1.03 | 0.974
PC-14 | 0.306 | 0.296 | 0.286 | 0.41 | 0.329 | 0.708 |  | 0.517 | 0.523 | 0.563 | 0.657 | 0.518 | 0.618 | 0.617 | 0.131 | 0.126 | 0.132 | 0.128 | 0.13
RERF-LC-KJ | 0.9 | 0.873 | 1.06 | 1.03 | 0.813 | 0.315 | 0.348 | 0.322 | 0.273 | 0.536 | 0.478 | 0.527 | 0.501 | 0.505 | 0.471 | 0.502 | 0.495 | 0.472 | 0.527
